The assay addresses T1, human P2X4 (Homo sapiens, UniProt Q99571).
T1 sequence (Q99571 1-388): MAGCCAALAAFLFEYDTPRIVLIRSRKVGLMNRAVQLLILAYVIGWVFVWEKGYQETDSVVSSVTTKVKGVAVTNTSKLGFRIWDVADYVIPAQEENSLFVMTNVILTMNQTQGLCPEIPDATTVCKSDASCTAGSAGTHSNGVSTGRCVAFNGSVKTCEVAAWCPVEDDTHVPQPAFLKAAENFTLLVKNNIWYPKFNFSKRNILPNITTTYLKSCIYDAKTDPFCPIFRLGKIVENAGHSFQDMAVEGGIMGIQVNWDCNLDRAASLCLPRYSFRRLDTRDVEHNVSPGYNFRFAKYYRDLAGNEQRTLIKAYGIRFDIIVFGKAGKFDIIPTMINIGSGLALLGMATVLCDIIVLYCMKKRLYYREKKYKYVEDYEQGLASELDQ
The assay can be described thus: Human P2X4 HEK Cell FLIPR Assay. Particulars: agonist Bz-ATP at EC80; for Emax: HEK293, HEK293 cells, percentage of maximal inhibition, read-out: Human P2X4 HEK Cells (FLIPR Assay) avg Efficacy [%]; for IC50: HEK293 cells, individual values listed where some fall outside detection range. In kind it is cell-based. The essentials:
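Calcium flux read by FLIPR for 120 sec after Bz-ATP challenge at EC80 (established each assay day), following 30 min room-temperature compound preincubation in dye-loaded stable human P2X4 HEK293 cells. Peak RFU over basal normalized to agonist control; IC50, maximal inhibition and Hill coefficient from triplicate means.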

This is an account of results in patent US11524938B2, “Aromatic sulfonamide derivatives” (Bayer Pharma Aktiengesellschaft, priority 2016, dated 2022).

Structures are written as SMILES.

A word on the IC50: it is the concentration at which inhibition is half-maximal. On to `NS(=O)(=O)c1cc(NC(=O)Cc2ccccc2Cl)ccc1-n1nc2cc(F)cc(F)c2n1` [Example 482, 2-(2-Chlorophenyl)-N-[4-(4,6-difluoro-2H-benzotriazol-2-yl)-3-sulfamoylphenyl]acetamide], for which the Emax was 73% and the IC50 stood at 2340 nM.
For the compound `NS(=O)(=O)c1cc(NC(=O)Cc2ccccc2Cl)ccc1-c1cnc(C(F)(F)F)s1` [Example 483, 2-(2-Chlorophenyl)-N-{3-sulfamoyl-4-[2-(trifluoromethyl)-1,3-thiazol-5-yl]phenyl}acetamide], the Emax turned out to be 86% and the IC50 was determined as 71 nM.
Consider `N#Cc1cnn(-c2cc(C(F)(F)F)c(NC(=O)Cc3ccccc3Cl)cc2S(N)(=O)=O)c1` [Example 484, 2-(2-Chlorophenyl)-N-[4-(4-cyano-1H-pyrazol-1-yl)-5-sulfamoyl-2-(trifluoromethyl)phenyl]acetamide], for which the Emax was found to be 63% and the IC50 stood at 401 nM.
Take `N#Cc1cnn(-c2ccc(NC(=O)Cc3cc(C(F)(F)F)ccc3Cl)cc2S(N)(=O)=O)c1` [Example 485, 2-[2-Chloro-5-(trifluoromethyl)phenyl]-N-[4-(4-cyano-1H-pyrazol-1-yl)-3-sulfamoylphenyl]acetamide]: the Emax came out at 100% and the IC50 was found to be 128 nM.
As to `N#Cc1cnn(-c2cc(C(F)(F)F)c(NC(=O)Cc3cc(C(F)(F)F)ccc3Cl)cc2S(N)(=O)=O)c1` [Example 486, 2-[2-Chloro-5-(trifluoromethyl)phenyl]-N-[4-(4-cyano-1H-pyrazol-1-yl)-5-sulfamoyl-2-(trifluoromethyl)phenyl]acetamide], the Emax is 71% and the IC50 stood at 7340 nM.
Taken in the same sequence, the figures for `N#Cc1cnn(-c2ccc(NC(=O)Cc3ccccc3Cl)c(C(F)(F)F)c2S(N)(=O)=O)c1` [Example 487, 2-(2-Chlorophenyl)-N-[4-(4-cyano-1H-pyrazol-1-yl)-3-sulfamoyl-2-(trifluoromethyl)phenyl]acetamide] were 45% and above 25000 nM.
Regarding `N#Cc1cnn(-c2cc(C(F)(F)F)c(NC(=O)Cc3cccc(C(F)(F)F)c3Cl)cc2S(N)(=O)=O)c1` [Example 488, 2-[2-Chloro-3-(trifluoromethyl)phenyl]-N-[4-(4-cyano-1H-pyrazol-1-yl)-5-sulfamoyl-2-(trifluoromethyl)phenyl]acetamide], the Emax was 78% and the half-maximal inhibitory concentration (IC50) worked out at 2330 nM.
Take `NS(=O)(=O)c1c(-c2cnn(C(F)F)c2)ccc(NC(=O)Cc2ccccc2Cl)c1C(F)(F)F` [Example 489, 2-(2-Chlorophenyl)-N-{4-[1-(difluoromethyl)-1H-pyrazol-4-yl]-3-sulfamoyl-2-(trifluoromethyl)phenyl}acetamide]: the Emax came out at 83% and the concentration for half-maximal inhibition (IC50) came to 2060 nM.
As to `NS(=O)(=O)c1cc(NC(=O)Cc2cccc(C(F)(F)F)c2Cl)ccc1-c1cnn(C(F)F)c1` [Example 490, 2-[2-Chloro-3-(trifluoromethyl)phenyl]-N-{4-[1-(difluoromethyl)-1H-pyrazol-4-yl]-3-sulfamoylphenyl}acetamide], the Emax came to 95% and the IC50 was found to be 91 nM.
Taken in the same sequence, the figures for `NS(=O)(=O)c1cc(NC(=O)Cc2ccccc2Cl)c(C(F)(F)F)cc1-c1cnn(C(F)F)c1` [Example 491, 2-(2-Chlorophenyl)-N-{4-[1-(difluoromethyl)-1H-pyrazol-4-yl]-5-sulfamoyl-2-(trifluoromethyl)phenyl}acetamide] were 67% and 9090 nM.
For `NS(=O)(=O)c1cc(NC(=O)Cc2ccccc2Cl)ccc1-c1cnn(C(F)F)c1C(F)(F)F` [Example 492, 2-(2-Chlorophenyl)-N-{4-[1-(difluoromethyl)-5-(trifluoromethyl)-1H-pyrazol-4-yl]-3-sulfamoylphenyl}acetamide], the Emax came out at 92% and the IC50 amounted to 531 nM.
